Measured values from patent US8138148B2, “GDNF derived peptides” (Copenhagen University, priority 2005, dated 2012).

Experiments:
[1] = tested on: hippocampal neurons; assay: Neurite outgrowth in co-cultures with pharmacological inhibitors (PP2, SU5402); assay type: cell-based, rat; details: neurons on control or NCAM-expressing fibroblasts; for effect of inhibitor on GDNF-induced neurite outgrowth: 10 ng/ml GDNF, PP2 0.2-25 μM, SU5402 1-25 μM; for effect of inhibitor on G2-induced neurite outgrowth: 3 μg/ml G2, PP2 0.2-100 μM, SU5402 1-100 μM, 24 hours
Method: (§1) In monocultures, neurons are grown directly on plastic and the only neuritogenic stimulus is the one presented by the added substance. In co-cultures, neurons are grown on top of a confluent monolayer of fibroblasts expressing NCAM-140 (LBN110) or NCAM-negative control fibroblasts (LVN212). NCAM on the neurons interact with NCAM on LBN110 cells thereby stimulating neurite outgrowth from the neurons. This system thus permits the study of NCAM-NCAM interactions and interactions between NCAM and other molecules.
(§2) For cocultures, L-cells were seeded in 8-well LabTek® Permanox Chamber slides at a density of 100.000 cells/well, except for transfection experiments where cells were seeded in 4-well LabTek® Permanox Chamber slides at a density of 200.000 cells/well. L-cells were grown for 24 hours in DMEM supplemented with 10% (v/v) FCS, 1% (v/v) glutamax, 100 U/ml penicillin, 100 μg/ml streptomycin, 2.5 μg/ml fungizone, and 567 μg/ml neomycin (G418), followed by washing twice in neurobasal medium with supplements before primary hippocampal neurons were seeded at a density of 7.000 cells/well in 8-well slides or 20.000 cells/well in 4-well slides.
To evaluate the involvement different intracellular signal transduction pathways pharmacological inhibitors, in particular the FGFR inhibitor SU5402 and Fyn-kinase inhibitor PP2, were diluted to the appropriate concentrations and added to the neurons immediately after seeding. After 10 minutes GDNF, GDNFp1 or medium (controls) was added and cells were incubated for 24 hours.
(§3) Neurite outgrowth experiments were terminated after the stated time by fixating the cells. To visualize neurons and their neurites, immunostaining of GAP-43 was performed. This staining is specific for neurons. Transfected cells and their neurites should be visible without immunostaining due to the fluorescence emitted by GFP. […] GFP is a cytoplasmic protein, and since thin neurites only contain a small volume of cytoplasm, GFP is only found in small amounts in most neurites. Therefore, a double-staining protocol, where cells were immunostained against GFP and GAP-43, was adopted. This protocol allowed the identification of transfected cells on the basis of GFP-staining in combination with visualization of neurites based on GAP-43-staining.
Without prior removal of the medium 300 μl/well (8-well slides) or 500 μl/well (4-well slides) of a PBS solution containing 0.4 mM CaCl2, 0.05 M sucrose and 8% (v/v) formaldehyde was added to the cultures for 20 minutes. Cells were then washed 10 minutes in PBS followed by washing in PBS with 1% (w/v) BSA for 20 minutes, after which cells were incubated with primary antibodies overnight at 4° C. […]

[2] = tested on: GFRα receptors; assay: Surface plasmon resonance (SPR) binding analysis, GFRα receptors; details: immobilized receptor protein, 25° C., PBS pH 7.4
Method: Analysis of binding was performed employing a BIAcoreX instrument (Biosensor AB, Uppsala, Sweden) at 25° C. using 10 mM pH 7.4 sodium phosphate containing 150 mM NaCl as running buffer (phosphate-buffered saline, PBS). The flow-rate was 5 μl/min. Data were analysed by non-linear curve-fitting using the manufacturer's software. The receptor proteins, e.g. NCAM Ig1-Ig2 and GFR proteins, were immobilized on a sensor chip CM5 using an amine coupling kit (Biosensor AB) as follows: the chip was activated by 20 μl activation solution; the protein was immobilized using 12 μl 20 μg/ml protein in 10 mM sodium phosphate buffer pH 6.0; the chip was blocked by 35 μl blocking solution. Various peptides at the indicated concentrations were injected into the sensor chip. The curve corresponding to the difference between binding to receptor and a blank chip was used for analysis.

[3] = tested on: cerebellar granule neurons (CGN); assay: Survival assay, cerebellar granule neurons (apoptosis induced by low KCl); assay type: cell-based, Wistar rat; details: 5 mM KCl, two days after induction of apoptosis
Method: Cerebellar granule neurons (CGN) were prepared from postnatal day seven Wistar rats largely as previously described by Schousboe et al. (1989). Cerebellar tissue was dissected in modified Krebs-Ringer solution kept on ice, and treated as described for the hippocampal neurons above. All cell cultures were incubated at 37° C. in a humidified atmosphere containing 5% CO2. All animals were handled in accordance with the national guidelines for animal welfare.
Primary cultures of CGN were plated at a density of 100,000 cells/cm^2 on poly-L-lysine coated 8-well permanox slides in Neurobasal-A medium (Gibco, BRL) supplemented with 2% (v/v) B27, 0.5% (v/v) glutamax, 100 U/ml penicillin, 100 μg/ml streptomycin and KCl, making the final concentration of KCl in the medium 40 mM. 24 hours after plating, cytosine-β-D-arabinofuranoside (Ara-C; Sigma-Aldrich) was added to a final concentration of 10 μM to avoid proliferation of glial cells, after which the neurons were allowed to differentiate for further six days at 37° C. Apoptotic cell death was induced by washing twice and changing the medium to Basal Medium Eagle (BME; Gibco BRL) supplemented with 1% (v/v) glutamine, 100 U/ml penicillin and 100 μg/ml streptomycin, 3.5 g D-glucose/l and 1% (v/v) sodium pyruvate (Gibco BRL) together with various concentrations of peptide. Thereby the concentration of potassium in the cultures was reduced to 5 mM KCl (D'Mello et al., 1993). Two days after induction of apoptosis, the cells were fixed with 4% (v/v) formaldehyde and stained with Hoechst 33258 for 25 minutes as described by Kruman et al. (1997). Images of 1000-1500 neurons were randomly recorded for each group in each experiment using computer assisted fluorescence microscopy as described for the hippocampal neurite outgrowth assay. Nuclei from dead and live neurons were counted using the software package Prima developed at the Protein Laboratory, and the fraction of live neurons relative to the total number of neurons was estimated.

[4] = tested on: hippocampal neurons; assay: Neurite outgrowth assay, co-cultures of hippocampal neurons on control fibroblasts or NCAM-expressing fibroblasts; assay type: cell-based, rat; details: 24 hours
Method: (§4) Two different versions of the neurite outgrowth assay were used in this study, monocultures and co-cultures.
as §1
(§5) For all experiments cells were grown in neurobasal medium with supplements as described above in a final volume of 300 μl/well in 8-well LabTek® Permanox Chamber slides or 500 μl/well in 4-well LabTek® Permanox Chamber slides.
as §2
(§6) To evaluate the effect peptides on neurite outgrowth, GDNF and the peptides, G1, G2, G3, A1, A2, A3, N1, N2 and N3 were diluted to the appropriate concentrations and added to the neurons approximately 10 minutes after seeding. Medium alone was added to controls, and cells were incubated for 24 hours.
as §3
Without prior removal of the medium 300 μl/well (8-well slides) or 500 μl/well (4-well slides) of a PBS solution containing 0.4 mM CaCl2, 0.05 M sucrose and 8% (v/v) formaldehyde was added to the cultures for 20 minutes. Cells were then washed 10 minutes in PBS followed by washing in PBS with 1% (w/v) BSA for 20 minutes, after which cells were incubated with primary antibodies overnight at 4° C.
Rabbit anti-rat GAP-43 antibodies were diluted 1:1000 for staining of untransfected cells and 1:2000 for staining of transfected cells. Mouse anti-GFP antibodies were diluted 1:1000. Antibodies were diluted in a PBS solution containing 7% (v/v) FCS to block unspecific binding, 50 mM glycine to block formaldehyde used for fixation, 0.2% (v/v) saponin to permeabilize cells, and 0.02% (v/v) NaN3 to preserve antibodies for later use.
The next day cells were washed 10 minutes in PBS followed by washing in PBS with 1% (w/v) BSA for 20 minutes. Cells were then incubated with secondary antibodies diluted in PBS with 1% (w/v) BSA for one hour at room temperature. Goat anti-rabbit IgG antibodies conjugated to Alexa 488 were diluted 1:1000 for untransfected cells and 1:2000 for transfected cells. Goat anti-mouse IgG antibodies conjugated to Alexa 546 were diluted 1:1000. Finally cells were washed 3×7 minutes in PBS and mounted with fluorescent mounting medium. […]

[5] = tested on: primary hippocampal neurons; assay: Neurite outgrowth assay, monocultures of primary hippocampal neurons; assay type: cell-based, rat; details: monoculture, stimulated 24 hours; GDNF 1-100 ng/ml, peptides 0.1-27 μg/ml; versus medium alone
Method: as §4, §1, §5
For monocultures, primary hippocampal neurons were seeded in 8-well LabTek® Permanox Chamber slides at a density of 10,000 cells/well.
as §6
as §3, with “GAP-43-staining. […]” for “GAP-43-staining.”

| Molecule | binding to the GFRα receptors (SPR) [2] | survival of cerebellar granule neurons (CGN) [3] | further results |
| --- | --- | --- | --- |
| CC(C)(C)n1nc(-c2ccc(Cl)cc2)c2c(N)ncnc21 [PP2] |  |  | effect of inhibitor on GDNF-induced neurite outgrowth [1]: decreases GDNF-induced neurite outgrowth; effect of inhibitor on G2-induced neurite outgrowth [1]: decreases G2-induced neurite outgrowth |
| Cc1c[nH]c(/C=C2\C(=O)Nc3ccccc32)c1CCC(=O)O [SU5402] |  |  | effect of inhibitor on GDNF-induced neurite outgrowth [1]: decreases GDNF-induced neurite outgrowth; effect of inhibitor on G2-induced neurite outgrowth [1]: decreases G2-induced neurite outgrowth |
| ARVYDLGLRRLRQRR (listed as Homo sapiens) [N2, neurturin fragment] | binding |  |  |
| DEVSFLDAHSRY (listed as Homo sapiens) [NeuGi, neurturin-derived peptide] | binding | increases the survival of CGNs |  |
| DLSFLDDNLVY (listed as Homo sapiens) [G3, GDNF fragment] |  |  | neurite outgrowth, overall effect of treatment, neurons grown on NCAM-expressing fibroblasts ([4]; co-culture on NCAM-expressing fibroblasts, GDNF 1-100 ng/ml, peptides 0.1-81 μg/ml): overall statistical significant effect; neurite outgrowth, overall effect of treatment, neurons grown on control fibroblasts ([4]; co-culture on control fibroblasts, GDNF 1-100 ng/ml, peptides 0.1-81 μg/ml): no overall significant effect; difference between neurite outgrowth on control fibroblasts and on NCAM-expressing fibroblasts across concentrations (one-way ANOVA) ([4]; difference per concentration, expressed as percentage of control): mean differences are not all the same; direction of the effect on NCAM-induced neurite outgrowth ([4]; neurons on NCAM-expressing fibroblasts, 0.3-81 μg/ml): inhibitory at higher concentrations; neurite outgrowth, overall effect of treatment (one-way ANOVA) [5]: do not induce neurite outgrowth |
| EAVSFMDVNSTWR (listed as Homo sapiens) [ArtGi, artemin-derived peptide] | binding | increases the survival of CGNs |  |
| RSPHDLSLASLLGAG (listed as Homo sapiens) [A2, artemin fragment] | binding | increases the survival of CGNs |  |
| VPVRALGLGHRSDEL (listed as Homo sapiens) [A1, artemin fragment] |  | increases the survival of CGNs |  |
| VRVSELGLGYASDET (listed as Homo sapiens) [N1, neurturin fragment] | binding | increases the survival of CGNs |  |
